In PubChem BioAssay (NCI):
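All cell lines were grown in 96-well plates and treated with compound for 48 hours. Abbreviation: GI50, concentration required for 50% inhibition of growth. TGI denotes the concentration required for complete inhibition of growth.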

What was measured:
Assay in all cases: NCI-60 cell line screen, 48 h
[1] = tested on: 786-0 renal
[2] = tested on: A498 renal
[3] = tested on: A549 NSCLC
[4] = tested on: ACHN renal
[5] = tested on: BT-549 breast
[6] = tested on: CAKI-1 renal
[7] = tested on: CCRF-CEM leukemia
[8] = tested on: COLO 205 colon
[9] = tested on: DU-145 prostate
[10] = tested on: EKVX NSCLC
[11] = tested on: HCC-2998 colon
[12] = tested on: HCT-116 colon
[13] = tested on: HCT-15 colon
[14] = tested on: HL-60(TB) leukemia
[15] = tested on: HOP-62 NSCLC
[16] = tested on: HOP-92 NSCLC
[17] = tested on: HS 578T breast
[18] = tested on: HT29 colon
[19] = tested on: IGROV1 ovarian
[20] = tested on: K-562 leukemia
[21] = tested on: KM12 colon
[22] = tested on: LOX IMVI melanoma
[23] = tested on: M14 melanoma
[24] = tested on: MALME-3M melanoma
[25] = tested on: MCF7 breast
[26] = tested on: MDA-MB-231 breast
[27] = tested on: MDA-MB-435
[28] = tested on: MOLT-4 leukemia
[29] = tested on: NCI-H226 lung
[30] = tested on: NCI-H23 lung
[31] = tested on: NCI-H460 lung
[32] = tested on: NCI-H522 lung
[33] = tested on: NCI/ADR-RES ovarian
[34] = tested on: OVCAR-4 ovarian
[35] = tested on: OVCAR-5 ovarian
[36] = tested on: OVCAR-8 ovarian
[37] = tested on: PC-3 prostate
[38] = tested on: RPMI-8226 leukemia
[39] = tested on: RXF 393 renal
[40] = tested on: SF-268 CNS
[41] = tested on: SF-295 CNS
[42] = tested on: SF-539 CNS
[43] = tested on: SK-MEL-2 melanoma
[44] = tested on: SK-MEL-28 melanoma
[45] = tested on: SK-MEL-5 melanoma
[46] = tested on: SK-OV-3 ovarian
[47] = tested on: SN12C renal
[48] = tested on: SNB-19 CNS
[49] = tested on: SNB-75 CNS
[50] = tested on: SR leukemia
[51] = tested on: SW-620 colon
[52] = tested on: T-47D breast
[53] = tested on: TK-10 renal
[54] = tested on: U251 CNS
[55] = tested on: UACC-257 melanoma
[56] = tested on: UACC-62 melanoma
[57] = tested on: UO-31 renal

In the case of `Oc1cccc2ccc(-c3nnc(SCc4ccc(O)c5ncccc45)n3-c3ccccc3)nc12`, the GI50 [1] is reported as 759 nM, the TGI [1] is reported as 11700 nM and the GI50 [2] is reported as 1810 nM. For the same compound, the TGI [2] was > 31000 nM, the GI50 [3] was 651 nM and the TGI [3] was > 35800 nM. The GI50 [4] was 419 nM, the TGI [4] was 2440 nM and the GI50 [5] was 419 nM. The TGI [5] was > 21700 nM, the GI50 [6] was 518 nM and the TGI [6] was 7250 nM. For the same compound, the GI50 [7] was 411 nM, the TGI [7] was > 63700 nM and the GI50 [8] was 4360 nM. For the same compound, the TGI [8] was > 100000 nM, the GI50 [9] was 580 nM and the TGI [9] was > 100000 nM. The GI50 [10] was 788 nM, the TGI [10] was > 26400 nM and the GI50 [11] was 612 nM. For the same compound, the TGI [11] was > 100000 nM, the GI50 [12] was 324 nM and the TGI [12] was 9380 nM. For the same compound, the GI50 [13] was 323 nM, the TGI [13] was > 37100 nM and the GI50 [14] was 369 nM. The GI50 [15] was 519 nM, the TGI [15] was 6840 nM and the GI50 [16] was 257 nM. For the same compound, the TGI [16] was 940 nM, the GI50 [17] was 398 nM and the TGI [17] was 6240 nM. The GI50 [18] was 7400 nM, the TGI [18] was > 100000 nM and the GI50 [19] was 735 nM. For the same compound, the TGI [19] was 11500 nM, the GI50 [20] was 339 nM and the TGI [20] was > 100000 nM. The GI50 [21] was 507 nM, the TGI [21] was > 100000 nM and the GI50 [22] was 556 nM. The TGI [22] was 7940 nM, the GI50 [23] was 476 nM and the TGI [23] was 3500 nM. The GI50 [24] was 599 nM, the TGI [24] was 5000 nM and the GI50 [25] was 325 nM. The TGI [25] was > 35300 nM, the GI50 [26] was 996 nM and the TGI [26] was 16200 nM. The GI50 [27] was 441 nM, the TGI [27] was > 73800 nM and the GI50 [28] was 459 nM. For the same compound, the TGI [28] was > 47400 nM, the GI50 [29] was 3040 nM and the TGI [29] was > 50800 nM. For the same compound, the GI50 [30] was 533 nM, the TGI [30] was > 33500 nM and the GI50 [31] was 311 nM. For the same compound, the TGI [31] was 1560 nM, the GI50 [32] was 456 nM and the TGI [32] was 11900 nM. The GI50 [33] was 356 nM, the TGI [33] was 6330 nM and the GI50 [34] was 672 nM. For the same compound, the TGI [34] was 9210 nM, the GI50 [35] was 3430 nM and the TGI [35] was > 81100 nM. It also gave a GI50 [36] of 408 nM, a TGI [36] of 11900 nM and a GI50 [37] of 391 nM. For the same compound, the TGI [37] was > 37800 nM, the GI50 [38] was 437 nM and the TGI [38] was > 100000 nM. The GI50 [39] was 744 nM, the TGI [39] was 19100 nM and the GI50 [40] was 471 nM. For the same compound, the TGI [40] was > 73900 nM, the GI50 [41] was 460 nM and the TGI [41] was 11900 nM. For the same compound, the GI50 [42] was 430 nM, the TGI [42] was 3410 nM and the GI50 [43] was 540 nM. For the same compound, the TGI [43] was 5710 nM, the GI50 [44] was 533 nM and the TGI [44] was > 100000 nM. For the same compound, the GI50 [45] was 579 nM, the GI50 [46] was 529 nM and the TGI [46] was 4890 nM. The GI50 [47] was 448 nM, the TGI [47] was 18300 nM and the GI50 [48] was 425 nM. The TGI [48] was > 44100 nM, the GI50 [49] was 279 nM and the TGI [49] was 4420 nM. The GI50 [50] was 385 nM, the TGI [50] was > 50800 nM and the GI50 [51] was 403 nM. The TGI [51] was > 35700 nM, the GI50 [52] was 380 nM and the TGI [52] was 2570 nM. For the same compound, the GI50 [53] was 428 nM, the TGI [53] was 7280 nM and the GI50 [54] was 293 nM. The TGI [54] was 7600 nM, the GI50 [55] was 708 nM and the TGI [55] was 6620 nM. The GI50 [56] was 1060 nM, the TGI [56] was 5080 nM and the GI50 [57] was 297 nM. It also gave a TGI [57] of 1570 nM.
